Measurements published in US4927835A, “Acylphenol derivatives, useful as anti-inflammatory agents and pain suppressants” (priority 1988, dated 1990).
Read-outs that look alike come from different tables or passages of the source.

What was measured:
[1] = Inhibitory action to carrageenin edema (right hind paw); type: in vivo, male rats (SD strain); conditions: for ED30: read-out: (1) ED30, carrageenin edema
Description: Seven male rats (SD strain; 6 weeks of age) were used in a group. The test compound was administered per os and, after one hour, 0.1 ml of 0.5% λ-carrageenin solution was injected subcutaneously into the right hind paw. After three hours, the volume of the right hind paw was measured with a plethysmometer (UGO-BASILE). The degree of swelling was calculated by subtracting the volume before the carrageenin from the post injection volume.

[2] = Inhibitory action to acetic acid writhing; type: in vivo, male mice (ddY strain); conditions: for ED50: po, read-out: (2) ED50, acetic acid writhing
Description: Six male mice (ddY strain; five weeks of age) were used in a group. The test compound was administered per os and, after one hour, 0.6% acetic acid was intraperitoneally injected at the dose of 0.1 ml/10 g and the total writhings within 20 minutes thereafter were counted. By comparing the number of writhings of the drug-treated group to that of the control group, the inhibitory rate was obtained and an ED50 value was calculated.

[3] = Inhibitory action to pain by heat stimulation (tail flick); type: in vivo, male mice (ddY strain); conditions: mouse, per os; for ED50: po, tail flick at 5, 15, 30, 45 and 60 minutes, read-out: (3) ED50, pain by heat stimulation
Description: Ten male mice (ddY strain; five weeks of age) were used in a group. Radiated heat (250 watts; 4 cm distance from the heat source) was applied to the end of the tail of the mice. […] The test compound was administered per os and the time of appearance of the tail flick after 5, 15, 30, 45 and 60 minutes was measured. […] The maximum positive rate among the analgesically positive rates in each measuring time was defined as the analgesically positive rate at that dose and an ED50 value was calculated therefrom.

[4] = Stomach disorder (ulcer generation); parameters: species or system male rats (SD strain); conditions: in vivo, po, rat; for selectivity ratio: ratio UD50/ED50, read-out: Safety Region (UD50 /ED50)
Description: Ten male rats (SD strain; five weeks of age) were used in a group. The test compound dissolved or suspended in physiological saline solution was administered to them per os. The animals were than fasted for 17 hours, and 0.5 ml of 5% pontamine sky blue solution was injected intravenously and, after 10 minutes, they were sacrificed with ether. The stomach was removed from the animals, and about 8 ml of 5% formaline solution was injected into the stomach to provide a semifixing. The presence of the […] was checked using a stereoscopic microscope. Rats in which even one ulcer was observed was judged to be positive in ulcer generation and a UD50 value was calculated by a provit method.

[5] = Agents and Actions, vol. 12, page 5, 1982; cited from earlier work
[6] = values given in literature; cited from earlier work
Acute toxicity = assay: Acute toxicity; parameters: species or system male rats (SD strain); conditions: in vivo, po; rat, per os; 7 days; provit method; read-out: (5) LD50, acute toxicity
Description: Test data showing the activity and superiority for compounds representative of those of the present invention is set forth below. In the tests, a representative compound of the present invention, namely 3-(1,1-Dimethylethyl)-4-hydroxy-5-[N-(2-hydroxyethyl)-N-methylaminomethyl]phenyl-2-thienyl ketone, the compound described in Example 4 (the "test compound"), was dissolved or suspended in 0.5% methylcellulose (MC) and administered as described.
Four male rats (SD strain; six weeks of age) were used in a group. The test compound was given per os and, after 7 days, the […] were monitored for life and an LD50 value was calculated by a provit method.

[7] = Analgesic, anti-inflammatory and anti-pyretic activity, summary statement; type: in vivo; conditions: from the data in Table 1
[8] = rat, per os, carrageenin 1 hour after compound, paw volume after three hours
[9] = mouse, per os, 0.6% acetic acid i.p. after one hour, writhings within 20 minutes

Row | Structure (SMILES) | ED30 ([1]; Rattus norvegicus) | ED50 ([2]; Mus musculus) | (3) action on pain by heat stimulation (no ED50) ([3]; at 20 mg/kg) | TD50 ([4]; per os, fasted 17 hours, provit method, read-out: (4) UD50, stomach ulcer generation) | selectivity ratio [4] | ED30 [1, 8] | ED50 [2, 9] | inhibitory action against carrageenin-induced edema, in words [5] | (3) action on pain by heat stimulation (no ED50) ([3]; at 500 mg/kg) | (5) LD50, acute toxicity [6] | TD50 [4] | LD50 at 168 h (Acute toxicity) | inhibitory action to carrageenin edema, in words ([1]; rat, per os) | analgesic activity, inflammatory pain (acetic acid writhing), compared with codeine ([2]; mouse, per os) | analgesic and anti-inflammatory activity, in words [7] | analgesic activity, non-inflammatory pain (heat stimulation), compared with codeine [3] | ED50 [3]
1 | COc1ccc2c(c1)c(CC(=O)O)c(C)n2C(=O)c1ccc(Cl)cc1 [Indomethacin] | 0.8 mg/kg | 2.1 mg/kg | no action at 20 mg/kg | 2.4 mg/kg | 3 | – | – | – | – | – | – | – | – | – | – | – | –
2 | CC(C)(C)c1cc(C(=O)c2cccs2)cc(C(C)(C)C)c1O [Example R-830, 3,5-di-tert-butyl-4-hydroxy-phenyl 2-thienyl ketone] | – | – | – | – | 2.1 | 5.6 mg/kg | 22.4 mg/kg | inhibitory action against carrageenin-induced edema | no action at 500 mg/kg | 1625 mg/kg | 11.8 mg/kg | – | – | – | – | – | –
3 | CN(CCO)Cc1cc(C(=O)c2cccs2)cc(C(C)(C)C)c1O [Example 4, 3-(1,1-Dimethylethyl)-4-hydroxy-5-[N-(2-hydroxyethyl)-N-methylaminomethyl]phenyl 2-thienyl ketone] | – | – | – | – | 14.9 | 9.8 mg/kg | 16.4 mg/kg | – | – | – | 146 mg/kg | 1000 mg/kg | inhibitory action to carrageenin edema | analgesic activity as strong as codeine | strong analgesic and anti-inflammatory activity | analgesic activity as strong as codeine | 47 mg/kg
4 | O=C(Cn1c(=O)sc2ccc(Cl)cc21)N1CCN(CCO)CC1 [Thiaramide] | – | – | – | – | 2.5 | 112 mg/kg | 27.3 mg/kg | – | – | 4700 mg/kg | 278 mg/kg | – | – | – | – | – | 108 mg/kg
